From patent US10751337B2, “Preservative free ocular compositions and methods for using the same for treating dry eye disease and other eye disorders” (The Board of Trustees of the University of Illinois, priority 2015, dated 2020)

Legend:
[1] = test system: Evaporative dry eye (EDE) attributable to LASIK refractive surgery; conditions: person after LASIK; eye drops 0.15% in both eyes; most recent follow up
Source text: The patient treated was a person with severe symptoms of ocular discomfort. The patient had undergone LASIK refractive surgery in both eyes. The prior treatment history was that the patient was on doxycycline pills, warm compresses, erythromycin ointment and intermittently on steroid eye drops. […] The patient instilled the eye drops on the surface of the eye and spread the excess eye drops to both eye lid margins.

[2] = test system: Meibomian gland dysfunction (MGD) in patients with chronic ocular Graft-Versus-Host-Disease (oGVHD); assay: Treatment of chronic ocular GVHD patients with Meibomian gland dysfunction, SGA and CGI assessment (Example 2)
[3] = test system: mixed dry eye disease (severe tear deficiency Meibomian gland dysfunction (MGD)); conditions: one patient
[4] = test system: Non-Sjogren dry eye syndrome (Meibomian gland dysfunction); assay: Treatment of a patient with non-Sjogren dry eye syndrome, MGD not due to ocular GVHD (Example 4); conditions: person, 0.15% twice a day
[5] = test system: Sjogren dry eye syndrome; conditions: person; 0.15% twice a day in both eyes
[6] = ocular GVHD patients with MGD, summary statement

`Brc1c(NC2=NCCN2)ccc2nccnc12` [brimonidine, 5-Bromo-N-(4,5-dihydro-1H-imidazol-2-yl) quinoxalin-6-amine] was tested, and the “patient-reported improvement of symptoms since starting treatment” value [1] was 90%, the “patients who did not report any change (SGA)” value ([2]; 18 patients (n=2), 0.15% twice a day) was 11% and the “patients who reported improvement (SGA)” value ([2]; 18 patients (n=6), 0.15% twice a day) was 33%. The “patients who reported much improvement (SGA)” value ([2]; 18 patients (n=10), 0.15% twice a day) was 55%, the “patients with moderate to marked improvements in CGI” value ([2]; 18 patients (n=15), 0.15% twice a day) was 83% and the “patients clinically worsened (CGI)” value ([2]; 18 patients, 0.15% twice a day) was “No patients had clinically worsened”. The “patients reporting worsening of symptoms or signs (SGA)” value ([2]; 18 patients, 0.15% twice a day) was “No patients reported worsening of symptoms or signs”, the “tolerability of the eye drops” value ([2]; 18 patients, 0.15% twice a day) was “easily tolerated” and the “Subjective Global Assessment (SGA), mean (±SD)” value ([2]; 18 patients, five point scale (Much worse to Much improved), 0.15% one drop twice a day, followed 6 months or more) was 4.4±0.69. The “Clinical Global Impression (CGI), mean (±SD)” value ([2]; 18 patients, seven point scale (Marked worsening to Marked improvement), 0.15% twice a day) was 6.2±0.88, the “patients tested with a beneficial effect” value [2, 6] was “approximately 90%” and the side effects [2, 6] was “without significant side effects”. The “conjunctival and eyelid margin redness” value ([3]; 0.15% aqueous solution twice a day to eyelash and eyelid margin area, 15 minutes after application) was “significant reduction”, the “patient-reported symptoms of ocular discomfort” value ([3]; 0.15% aqueous solution twice a day, after applying) was “reduced” and the side effects [4] was “No side effects were reported”. The “tolerability of the drops” value [4] was “tolerated well”, the “patient-reported redness of both eyes” value ([4]; most recent follow up) was “reduction in redness of both eyes” and the “patient-reported symptoms of dryness and burning” value ([4]; most recent follow up) was “reduction in symptoms of dryness and burning”. For the same molecule, the “patient-reported symptoms and redness” value [5] was “improvement in symptoms and redness”.
